# Laboratory results from ChEMBL document CHEMBL3044672, “N9- and N7-(Chloromethyl Phenymethyl)Chloropurine Derivatives from , '-Dichloroxylenes: Synthesis and Anticancer Activity” (2005).
# Tests used:
# Assay type in all cases: functional
# A498 = assay: Cytotoxicity against Homo sapiens (human) A498 cells after 48 hr by sulforhodamine B assay; conditions: A498, 48 h
# ACHN = assay: Cytotoxicity against Homo sapiens (human) ACHN cells after 48 hr by sulforhodamine B assay; conditions: for CC50: read-out: LC50 (the source's name)
# 786-0 = assay: Cytotoxicity against Homo sapiens (human) 786-0 cells after 48 hr by sulforhodamine B assay; conditions: 786-0, 48 h
# OVCAR-5 = assay: Cytotoxicity against Homo sapiens (human) OVCAR5 cells after 48 hr by sulforhodamine B assay; conditions: OVCAR-5, 48 h; for CC50: read-out: LC50 (the source's name)
# IGROV-1 = assay: Cytotoxicity against Homo sapiens (human) IGROV1 cells after 48 hr by sulforhodamine B assay; conditions: IGROV-1, 48 h
# OVCAR-3 = assay: Cytotoxicity against Homo sapiens (human) OVCAR3 cells after 48 hr by sulforhodamine B assay; conditions: OVCAR-3, 48 h
# UACC-257 = assay: Cytotoxicity against Homo sapiens (human) UACC257 cells after 48 hr by sulforhodamine B assay; conditions: UACC-257, 48 h
# SK-MEL-28 = assay: Cytotoxicity against Homo sapiens (human) SK-MEL-28 cells after 48 hr by sulforhodamine B assay; conditions: SK-MEL-28, 48 h
# SK-MEL-2 = assay: Cytotoxicity against Homo sapiens (human) SK-MEL-2 cells after 48 hr by sulforhodamine B assay; conditions: SK-MEL-2, 48 h
# M14 = assay: Cytotoxicity against Homo sapiens (human) M14 cells after 48 hr by sulforhodamine B assay; conditions: M14, 48 h
# U-251 = assay: Cytotoxicity against Homo sapiens (human) U251 cells after 48 hr by sulforhodamine B assay; conditions: U-251, 48 h
# T47D = assay: Cytotoxicity against Homo sapiens (human) T47D cells after 48 hr by sulforhodamine B assay
# MDA-MB-435 = assay: Cytotoxicity against Homo sapiens (human) MDA-MB-435 cells after 48 hr by sulforhodamine B assay; conditions: MDA-MB-435, 48 h
# Hs-578T = assay: Cytotoxicity against Homo sapiens (human) Hs 578T cells after 48 hr by sulforhodamine B assay
# [1] = Cytotoxicity against Homo sapiens (human) NCI-ADR-RES cells after 48 hr by sulforhodamine B assay
# DU-145 = assay: Cytotoxicity against Homo sapiens (human) DU145 cells after 48 hr by sulforhodamine B assay; conditions: DU-145, 48 h
# UO-31 = assay: Cytotoxicity against Homo sapiens (human) UO31 cells after 48 hr by sulforhodamine B assay; conditions: UO-31, 48 h
# TK-10 = assay: Cytotoxicity against Homo sapiens (human) TK10 cells after 48 hr by sulforhodamine B assay; conditions: TK-10, 48 h; for CC50: read-out: LC50 (the source's name)
# CAKI-1 = assay: Cytotoxicity against Homo sapiens (human) Caki1 cells after 48 hr by sulforhodamine B assay; conditions: CAKI-1, 48 h; for CC50: read-out: LC50 (the source's name)
# SF-295 = assay: Cytotoxicity against Homo sapiens (human) SF295 cells after 48 hr by sulforhodamine B assay; conditions: SF-295, 48 h; for CC50: read-out: LC50 (the source's name)
# SW-620 = assay: Cytotoxicity against Homo sapiens (human) SW620 cells after 48 hr by sulforhodamine B assay; conditions: SW-620, 48 h
# HCT-15 = assay: Cytotoxicity against Homo sapiens (human) HCT15 cells after 48 hr by sulforhodamine B assay; conditions: HCT-15, 48 h; for CC50: read-out: LC50 (the source's name)
# HCT-116 = assay: Cytotoxicity against Homo sapiens (human) HCT116 cells after 48 hr by sulforhodamine B assay; conditions: HCT-116, 48 h; for CC50: read-out: LC50 (the source's name)
# HCC 2998 = assay: Cytotoxicity against Homo sapiens (human) HCC2998 cells after 48 hr by sulforhodamine B assay; conditions: HCC 2998, 48 h; for CC50: read-out: LC50 (the source's name)
# NCI-H460 = assay: Cytotoxicity against Homo sapiens (human) NCI-H460 cells after 48 hr by sulforhodamine B assay; conditions: NCI-H460, 48 h; for CC50: read-out: LC50 (the source's name)
# NCI-H322M = assay: Cytotoxicity against Homo sapiens (human) NCI-H322M cells after 48 hr by sulforhodamine B assay; conditions: for CC50: read-out: LC50 (the source's name)
# NCI-H226 = assay: Cytotoxicity against Homo sapiens (human) NCI-H226 cells after 48 hr by sulforhodamine B assay; conditions: NCI-H226, 48 h; for CC50: read-out: LC50 (the source's name)
# HOP-92 = assay: Cytotoxicity against Homo sapiens (human) HOP92 cells after 48 hr by sulforhodamine B assay; conditions: HOP-92, 48 h; for CC50: read-out: LC50 (the source's name)
# A549 = assay: Cytotoxicity against Homo sapiens (human) A549 cells after 48 hr by sulforhodamine B assay; conditions: A549, 48 h; for CC50: read-out: LC50 (the source's name)
# MOLT-4 = assay: Cytotoxicity against Homo sapiens (human) MOLT4 cells after 48 hr by sulforhodamine B assay; conditions: MOLT-4, 48 h; for CC50: read-out: LC50 (the source's name)
# CCRF-CEM = assay: Cytotoxicity against Homo sapiens (human) CCRF-CEM cells after 48 hr by sulforhodamine B assay; conditions: for CC50: read-out: LC50 (the source's name)
# MCF7 = assay: Cytotoxicity against Homo sapiens (human) MCF7 cells assessed as cell growth at 10^-4 M after 48 hr by Alamar blue assay; conditions: MCF7, 48 h, read-out: Activity
structure (smiles),measurement,setting,value
Nc1nc(Cl)c2ncn(Cc3ccccc3CCl)c2n1,"LC50 (lethal concentration, 50% cell kill)",A498,95.5 µM
same,TGI,A498,44.7 µM
same,TGI,ACHN,21.9 µM
same,CC50,ACHN,75.9 µM
same,LC50,786-0,> 100 µM
same,TGI,786-0,52.5 µM
same,TGI,OVCAR-5,39.8 µM
same,CC50,OVCAR-5,79.4 µM
same,LC50,IGROV-1,> 100 µM
same,TGI,IGROV-1,> 100 µM
same,LC50,OVCAR-3,46.8 µM
same,TGI,OVCAR-3,20 µM
same,LC50 (concentration killing 50% of cells),UACC-257,> 100 µM
same,TGI,UACC-257,38 µM
same,LC50 (concentration killing 50% of cells),SK-MEL-28,74.1 µM
same,TGI,SK-MEL-28,20.9 µM
same,LC50 (concentration killing 50% of cells),SK-MEL-2,> 100 µM
same,TGI,SK-MEL-2,81.3 µM
same,LC50,M14,> 100 µM
same,TGI,M14,39.8 µM
same,LC50 (concentration killing 50% of cells),U-251,72.4 µM
same,TGI,U-251,13.5 µM
same,LC50,T47D,> 100 µM
same,TGI,T47D,83.2 µM
same,LC50,MDA-MB-435,> 100 µM
same,TGI,MDA-MB-435,26.9 µM
same,LC50,Hs-578T,> 100 µM
same,TGI,Hs-578T,77.6 µM
same,LC50 (concentration killing 50% of cells),[1],> 100 µM
same,TGI,[1],34.7 µM
same,LC50,DU-145,70.8 µM
same,TGI,DU-145,32.4 µM
same,LC50 (concentration causing 50% net cell kill),UO-31,> 100 µM
same,TGI,UO-31,44.7 µM
same,TGI,TK-10,36.3 µM
same,CC50,TK-10,75.9 µM
same,TGI,CAKI-1,20.4 µM
same,CC50,CAKI-1,50.1 µM
same,TGI,SF-295,23.4 µM
same,CC50,SF-295,63.1 µM
same,TGI,SW-620,11.8 µM
same,CC50,SW-620; read-out: LC50 (the source's name),> 100 µM
same,TGI,HCT-15,7.41 µM
same,CC50,HCT-15,> 100 µM
same,TGI,HCT-116,> 100 µM
same,CC50,HCT-116,> 100 µM
same,TGI,HCC 2998,6.61 µM
same,CC50,HCC 2998,26.3 µM
same,TGI,NCI-H460,37.1 µM
same,CC50,NCI-H460,> 100 µM
same,TGI,NCI-H322M,29.5 µM
same,CC50,NCI-H322M,69.2 µM
same,TGI,NCI-H226,10 µM
same,CC50,NCI-H226,53.7 µM
same,TGI,HOP-92,30.9 µM
same,CC50,HOP-92,> 100 µM
same,TGI,A549,53.7 µM
same,CC50,A549,> 100 µM
same,TGI,MOLT-4,> 100 µM
same,CC50,MOLT-4,> 100 µM
same,TGI,CCRF-CEM,> 100 µM
same,CC50,CCRF-CEM,> 100 µM
same,growth at 100 µM,MCF7,0%
ClCc1ccc(Cn2cnc3c(Cl)ncnc32)cc1,GI50,A498,12.9 µM
same,"LC50 (lethal concentration, 50% cell kill)",A498,57.5 µM
same,TGI,A498,26.9 µM
same,GI50,ACHN,0.31 µM
same,TGI,ACHN,1.28 µM
same,CC50,ACHN,3.8 µM
same,GI50,786-0,1.02 µM
same,LC50,786-0,21.4 µM
same,TGI,786-0,3.98 µM
same,GI50,OVCAR-5,2.95 µM
same,TGI,OVCAR-5,9.23 µM
same,CC50,OVCAR-5,34.7 µM
same,GI50,IGROV-1,3.16 µM
same,LC50,IGROV-1,> 100 µM
same,TGI,IGROV-1,25.1 µM
same,GI50,OVCAR-3,1.38 µM
same,LC50,OVCAR-3,8.91 µM
same,TGI,OVCAR-3,3.54 µM
same,GI50,UACC-257,7.41 µM
same,LC50 (concentration killing 50% of cells),UACC-257,97.7 µM
same,TGI,UACC-257,28.8 µM
same,GI50,SK-MEL-28,7.94 µM
same,LC50 (concentration killing 50% of cells),SK-MEL-28,> 100 µM
same,TGI,SK-MEL-28,30.9 µM
same,GI50,SK-MEL-2,4.36 µM
same,LC50 (concentration killing 50% of cells),SK-MEL-2,> 100 µM
same,TGI,SK-MEL-2,> 100 µM
same,GI50,M14,1.28 µM
same,LC50,M14,9.12 µM
same,TGI,M14,3.46 µM
same,GI50,U-251,1.25 µM
same,LC50 (concentration killing 50% of cells),U-251,7.41 µM
same,TGI,U-251,3.01 µM
same,GI50,MDA-MB-435,1.62 µM
same,LC50,MDA-MB-435,15.8 µM
same,TGI,MDA-MB-435,4.36 µM
same,GI50,Hs-578T,10.2 µM
same,LC50,Hs-578T,> 100 µM
same,TGI,Hs-578T,38.9 µM
same,GI50,[1],1.51 µM
same,LC50 (concentration killing 50% of cells),[1],38.9 µM
same,TGI,[1],5.49 µM
same,GI50,DU-145,1.31 µM
same,LC50,DU-145,36.3 µM
same,TGI,DU-145,11.8 µM
same,GI50,UO-31,2.08 µM
same,LC50 (concentration causing 50% net cell kill),UO-31,> 100 µM
same,TGI,UO-31,4.57 µM
same,GI50,TK-10,1.09 µM
same,TGI,TK-10,4.67 µM
same,CC50,TK-10,22.9 µM
same,GI50,CAKI-1,0.26 µM
same,TGI,CAKI-1,0.64 µM
same,CC50,CAKI-1,2.39 µM
same,GI50,SF-295,0.27 µM
same,TGI,SF-295,3.46 µM
same,CC50,SF-295,24 µM
same,GI50,HCT-15,1.95 µM
same,TGI,HCT-15,12.6 µM
same,CC50,HCT-15,63.1 µM
same,GI50,HCT-116,1.12 µM
same,TGI,HCT-116,2.45 µM
same,CC50,HCT-116,25.1 µM
same,GI50,HCC 2998,0.66 µM
same,TGI,HCC 2998,2.04 µM
same,CC50,HCC 2998,5.12 µM
same,GI50,NCI-H460,0.05 µM
same,TGI,NCI-H460,1.82 µM
same,CC50,NCI-H460,26.9 µM
same,GI50,NCI-H322M,1.82 µM
same,TGI,NCI-H322M,4.16 µM
same,CC50,NCI-H322M,9.33 µM
same,GI50,NCI-H226,1.58 µM
same,TGI,NCI-H226,7.41 µM
same,CC50,NCI-H226,49 µM
same,GI50,HOP-92,6.02 µM
same,TGI,HOP-92,66.1 µM
same,CC50,HOP-92,> 100 µM
same,GI50,A549,1.38 µM
same,TGI,A549,18.2 µM
same,CC50,A549,51.3 µM
same,GI50,MOLT-4,4.78 µM
same,TGI,MOLT-4,> 100 µM
same,CC50,MOLT-4,> 100 µM
same,GI50,CCRF-CEM,0.51 µM
same,TGI,CCRF-CEM,> 100 µM
same,CC50,CCRF-CEM,> 100 µM
same,growth at 100 µM,MCF7,7%
